Results: US20260355225A1 (priority 2022, published 2026)

Test system: SARS-CoV-2
Experiment: Antiviral assay, inhibition of virus-induced cytopathic effect (CPE) of SARS-CoV-2 by MTT assay (Example 1)
Settings: Severe acute respiratory syndrome coronavirus 2, Vero C1008, SARS-CoV-2, Vero E6 (CPE & MTT)

## O=C[C@H](O)[C@@H](O)[C@H](O)CO [D-xylose]
Administration at the same time as the virus
  IC50: 26.2 mM
Preincubation with cells 6 h before infection
  IC50: 95.5 mM
